# Data from patent publication US9546156B2, “N-bicyclic aryl,N'-pyrazolyl urea, thiourea, guanidine cyanoguanidine compounds as TrkA kinase inhibitors” (Array BioPharma Inc., priority 2012, dated 2017).
# What was measured:
# Test in all cases: Off-target kinase profiling (KinaseProfiler)
# Type in all cases: biochemical
# Conditions in all cases: 10 μM, ATP near Km
# CK1gamma3 = biological target: T1, CK1gamma3 (Homo sapiens, UniProt Q9Y6M4)
# T1 construct: purchased Millipore, Inc. (KinaseProfiler service)
# Experimental: (§1) A representative compound (Example 16) of the invention was tested for off-target kinase activity at a concentration of 10 μM by Millipore, Inc. in their KinaseProfiler™ service against all the kinases available in their full kinase panel. The compound was run in duplicate at a concentration of ATP near the Km for each individual kinase according to Millipore's specifications. The results are shown in Table B. Data are reported as percent of control (POC) and are the average of the two replicates.
# HIPK1 = biological target: T2, HIPK1 (Homo sapiens, UniProt Q86Z02)
# T2 construct: purchased Millipore, Inc. (KinaseProfiler service)
# Experimental: as §1
# MKK4_m = biological target: T3, MKK4_m (Mus musculus, UniProt P47809)
# T3 construct: purchased Millipore, Inc. (KinaseProfiler service)
# Experimental: as §1
# Pim-2 = biological target: T4, Pim-2 (Homo sapiens, UniProt Q9P1W9)
# T4 construct: purchased Millipore, Inc. (KinaseProfiler service)
# Experimental: as §1
# ULK2 = biological target: T5, ULK2 (Homo sapiens, UniProt Q8IYT8)
# T5 construct: purchased Millipore, Inc. (KinaseProfiler service)
# Experimental: as §1
# MKK6 = biological target: T6, MKK6 (Homo sapiens, UniProt P52564)
# T6 construct: purchased Millipore, Inc. (KinaseProfiler service)
# Experimental: as §1
# TSSK1 = biological target: T7, TSSK1 (Homo sapiens, UniProt Q9BXA7)
# T7 construct: purchased Millipore, Inc. (KinaseProfiler service)
# Experimental: as §1
# PKCalpha = biological target: T8, PKCalpha (Homo sapiens, UniProt P17252)
# T8 construct: purchased Millipore, Inc. (KinaseProfiler service)
# Experimental: as §1
# SRPK2 = biological target: T9, SRPK2 (Homo sapiens, UniProt P78362)
# T9 construct: purchased Millipore, Inc. (KinaseProfiler service)
# Experimental: as §1
# ZAP-70 = biological target: T10, ZAP-70 (Homo sapiens, UniProt P43403)
# T10 construct: purchased Millipore, Inc. (KinaseProfiler service)
# Experimental: as §1
# ROCK-II = biological target: T11, ROCK-II (Homo sapiens, UniProt O75116)
# T11 construct: purchased Millipore, Inc. (KinaseProfiler service)
# Experimental: as §1
# MKNK2 = biological target: T12, MKNK2 (Homo sapiens, UniProt Q9HBH9)
# T12 construct: purchased Millipore, Inc. (KinaseProfiler service)
# Experimental: as §1
# Rsk4 = biological target: T13, Rsk4 (Homo sapiens, UniProt Q9UK32)
# T13 construct: purchased Millipore, Inc. (KinaseProfiler service)
# Experimental: as §1
# MARK2 = biological target: T14, MARK2 (Homo sapiens, UniProt Q7KZI7)
# T14 construct: purchased Millipore, Inc. (KinaseProfiler service)
# Experimental: as §1
# HIPK3 = biological target: T15, HIPK3 (Homo sapiens, UniProt Q9H422)
# T15 construct: purchased Millipore, Inc. (KinaseProfiler service)
# Experimental: as §1
# PAK6 = biological target: T16, PAK6 (Homo sapiens, UniProt Q9NQU5)
# T16 construct: purchased Millipore, Inc. (KinaseProfiler service)
# Experimental: as §1
# IRR = biological target: T17, IRR (Homo sapiens, UniProt P14616)
# T17 construct: purchased Millipore, Inc. (KinaseProfiler service)
# Experimental: as §1
# IRAK4 = biological target: T18, IRAK4 (Homo sapiens, UniProt Q9NWZ3)
# T18 construct: purchased Millipore, Inc. (KinaseProfiler service)
# Experimental: as §1
# Flt4 = biological target: T19, Flt4 (Homo sapiens, UniProt P35916)
# T19 construct: purchased Millipore, Inc. (KinaseProfiler service)
# Experimental: as §1
# Abl-P = biological target: T20, Abl-P (Homo sapiens, UniProt P00519)
# T20 construct: purchased Millipore, Inc. (KinaseProfiler service)
# Experimental: as §1
# DYRK2 = biological target: T21, DYRK2 (Homo sapiens, UniProt Q92630)
# T21 construct: purchased Millipore, Inc. (KinaseProfiler service)
# Experimental: as §1
# MAPKAP-K2 = biological target: T22, MAPKAP-K2 (Homo sapiens, UniProt P49137)
# T22 construct: purchased Millipore, Inc. (KinaseProfiler service)
# Experimental: as §1
# PKCbetaII = biological target: T23, PKCbetaII (Homo sapiens, UniProt P05771)
# T23 construct: purchased Millipore, Inc. (KinaseProfiler service)
# Experimental: as §1
# MEK1 = biological target: T24, MEK1 (Homo sapiens, UniProt Q02750)
# T24 construct: purchased Millipore, Inc. (KinaseProfiler service)
# Experimental: as §1
# ITK = biological target: T25, ITK (Homo sapiens, UniProt Q08881)
# T25 construct: purchased Millipore, Inc. (KinaseProfiler service)
# Experimental: as §1
# TBK1 = biological target: T26, TBK1 (Homo sapiens, UniProt Q9UHD2)
# T26 construct: purchased Millipore, Inc. (KinaseProfiler service)
# Experimental: as §1
# MRCKalpha = biological target: T27, MRCKalpha (Homo sapiens, UniProt Q5VT25)
# T27 construct: purchased Millipore, Inc. (KinaseProfiler service)
# Experimental: as §1
# PKCbetaI = biological target: T28, PKCbetaI (Homo sapiens, UniProt P05771)
# T28 construct: purchased Millipore, Inc. (KinaseProfiler service)
# Experimental: as §1
# Flt1 = biological target: T29, Flt1 (Homo sapiens, UniProt P17948)
# T29 construct: purchased Millipore, Inc. (KinaseProfiler service)
# Experimental: as §1
# CAMK2g = biological target: T30, CAMK2g (Homo sapiens, UniProt Q13555)
# T30 construct: purchased Millipore, Inc. (KinaseProfiler service)
# Experimental: as §1
# p38beta = biological target: T31, p38beta (Homo sapiens, UniProt Q15759)
# T31 construct: purchased Millipore, Inc. (KinaseProfiler service)
# Experimental: as §1
# CDK7/cyclinH/MAT1 = biological target: T32, CDK7/cyclinH/MAT1 (Homo sapiens, UniProt P50613)
# T32 construct: purchased Millipore, Inc. (KinaseProfiler service)
# Experimental: as §1
# CK2 = biological target: T33, CK2 (Homo sapiens, UniProt P68400)
# T33 construct: purchased Millipore, Inc. (KinaseProfiler service)
# Experimental: as §1
# NLK = biological target: T34, NLK (Homo sapiens, UniProt Q9UBE8)
# T34 construct: purchased Millipore, Inc. (KinaseProfiler service)
# Experimental: as §1
# PKAC-alpha = biological target: T35, PKAC-alpha (Homo sapiens, UniProt P17612)
# T35 construct: purchased Millipore, Inc. (KinaseProfiler service)
# Experimental: as §1
# Hck = biological target: T36, Hck (Homo sapiens, UniProt P08631)
# T36 construct: purchased Millipore, Inc. (KinaseProfiler service)
# Experimental: as §1
# NEK3 = biological target: T37, NEK3 (Homo sapiens, UniProt P51956)
# T37 construct: purchased Millipore, Inc. (KinaseProfiler service)
# Experimental: as §1
# Fes = biological target: T38, Fes (Homo sapiens, UniProt P07332)
# T38 construct: purchased Millipore, Inc. (KinaseProfiler service)
# Experimental: as §1
# Yes = biological target: T39, Yes (Homo sapiens, UniProt P07947)
# T39 construct: purchased Millipore, Inc. (KinaseProfiler service)
# Experimental: as §1
# EphB3 = biological target: T40, EphB3 (Homo sapiens, UniProt P54753)
# T40 construct: purchased Millipore, Inc. (KinaseProfiler service)
# Experimental: as §1
# TLK2 = biological target: T41, TLK2 (Homo sapiens, UniProt Q86UE8)
# T41 construct: purchased Millipore, Inc. (KinaseProfiler service)
# Experimental: as §1
# T2 sequence (Q86Z02 whole entry): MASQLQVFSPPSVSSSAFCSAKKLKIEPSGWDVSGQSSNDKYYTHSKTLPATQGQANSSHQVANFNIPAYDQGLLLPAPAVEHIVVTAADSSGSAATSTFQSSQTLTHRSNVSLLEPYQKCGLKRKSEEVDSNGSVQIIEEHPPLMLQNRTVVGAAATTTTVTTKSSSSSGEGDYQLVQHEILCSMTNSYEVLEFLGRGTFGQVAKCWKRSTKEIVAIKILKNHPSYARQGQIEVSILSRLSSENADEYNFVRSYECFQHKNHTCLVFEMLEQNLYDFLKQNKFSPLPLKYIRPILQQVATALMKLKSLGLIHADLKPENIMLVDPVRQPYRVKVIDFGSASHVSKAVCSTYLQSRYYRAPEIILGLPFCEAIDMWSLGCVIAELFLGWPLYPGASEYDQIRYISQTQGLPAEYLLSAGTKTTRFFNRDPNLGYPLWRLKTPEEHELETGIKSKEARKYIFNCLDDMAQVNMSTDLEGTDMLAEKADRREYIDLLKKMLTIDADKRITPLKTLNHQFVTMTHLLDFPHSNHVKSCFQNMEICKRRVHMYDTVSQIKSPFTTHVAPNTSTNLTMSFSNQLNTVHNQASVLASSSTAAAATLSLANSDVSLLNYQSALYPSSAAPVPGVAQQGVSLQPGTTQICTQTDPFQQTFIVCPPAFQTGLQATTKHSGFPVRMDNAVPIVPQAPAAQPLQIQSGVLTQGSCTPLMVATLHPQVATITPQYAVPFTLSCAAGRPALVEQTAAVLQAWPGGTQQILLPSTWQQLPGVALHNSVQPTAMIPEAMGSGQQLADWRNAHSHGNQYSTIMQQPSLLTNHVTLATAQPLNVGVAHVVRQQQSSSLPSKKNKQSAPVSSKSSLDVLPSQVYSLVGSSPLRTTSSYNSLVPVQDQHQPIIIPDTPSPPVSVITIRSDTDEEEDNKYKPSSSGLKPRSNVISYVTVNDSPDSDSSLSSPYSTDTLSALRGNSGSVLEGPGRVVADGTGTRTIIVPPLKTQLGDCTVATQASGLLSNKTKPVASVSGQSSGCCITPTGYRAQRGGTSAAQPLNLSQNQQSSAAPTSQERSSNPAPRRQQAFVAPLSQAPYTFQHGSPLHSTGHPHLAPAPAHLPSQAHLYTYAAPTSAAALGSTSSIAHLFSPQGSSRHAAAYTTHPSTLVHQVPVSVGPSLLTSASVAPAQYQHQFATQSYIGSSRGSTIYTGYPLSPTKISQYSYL
# T6 sequence (P52564 whole entry): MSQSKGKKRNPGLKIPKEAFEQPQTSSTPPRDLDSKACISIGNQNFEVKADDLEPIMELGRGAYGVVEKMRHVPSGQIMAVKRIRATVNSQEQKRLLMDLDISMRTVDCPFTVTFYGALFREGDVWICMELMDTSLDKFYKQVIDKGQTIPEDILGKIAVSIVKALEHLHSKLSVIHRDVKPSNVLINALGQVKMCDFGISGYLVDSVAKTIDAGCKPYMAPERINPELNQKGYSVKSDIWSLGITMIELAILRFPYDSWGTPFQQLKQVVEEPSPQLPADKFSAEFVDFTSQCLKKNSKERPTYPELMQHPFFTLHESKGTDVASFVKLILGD
# T30 sequence (Q13555 whole entry): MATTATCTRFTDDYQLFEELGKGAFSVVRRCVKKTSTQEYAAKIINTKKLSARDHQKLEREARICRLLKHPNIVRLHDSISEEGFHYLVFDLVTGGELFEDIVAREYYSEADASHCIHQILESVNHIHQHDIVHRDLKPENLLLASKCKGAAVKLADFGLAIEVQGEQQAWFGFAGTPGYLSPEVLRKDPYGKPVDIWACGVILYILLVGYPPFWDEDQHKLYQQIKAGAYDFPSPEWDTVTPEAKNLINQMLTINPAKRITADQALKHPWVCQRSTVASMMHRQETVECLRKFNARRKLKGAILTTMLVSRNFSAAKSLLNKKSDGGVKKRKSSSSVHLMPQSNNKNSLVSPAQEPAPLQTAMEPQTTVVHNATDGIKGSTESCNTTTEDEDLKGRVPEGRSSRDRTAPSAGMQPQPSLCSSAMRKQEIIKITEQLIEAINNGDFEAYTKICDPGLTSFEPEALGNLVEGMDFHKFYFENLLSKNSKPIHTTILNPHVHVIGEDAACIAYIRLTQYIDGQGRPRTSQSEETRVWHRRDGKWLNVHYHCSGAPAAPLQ
# T40 sequence (P54753 34-998): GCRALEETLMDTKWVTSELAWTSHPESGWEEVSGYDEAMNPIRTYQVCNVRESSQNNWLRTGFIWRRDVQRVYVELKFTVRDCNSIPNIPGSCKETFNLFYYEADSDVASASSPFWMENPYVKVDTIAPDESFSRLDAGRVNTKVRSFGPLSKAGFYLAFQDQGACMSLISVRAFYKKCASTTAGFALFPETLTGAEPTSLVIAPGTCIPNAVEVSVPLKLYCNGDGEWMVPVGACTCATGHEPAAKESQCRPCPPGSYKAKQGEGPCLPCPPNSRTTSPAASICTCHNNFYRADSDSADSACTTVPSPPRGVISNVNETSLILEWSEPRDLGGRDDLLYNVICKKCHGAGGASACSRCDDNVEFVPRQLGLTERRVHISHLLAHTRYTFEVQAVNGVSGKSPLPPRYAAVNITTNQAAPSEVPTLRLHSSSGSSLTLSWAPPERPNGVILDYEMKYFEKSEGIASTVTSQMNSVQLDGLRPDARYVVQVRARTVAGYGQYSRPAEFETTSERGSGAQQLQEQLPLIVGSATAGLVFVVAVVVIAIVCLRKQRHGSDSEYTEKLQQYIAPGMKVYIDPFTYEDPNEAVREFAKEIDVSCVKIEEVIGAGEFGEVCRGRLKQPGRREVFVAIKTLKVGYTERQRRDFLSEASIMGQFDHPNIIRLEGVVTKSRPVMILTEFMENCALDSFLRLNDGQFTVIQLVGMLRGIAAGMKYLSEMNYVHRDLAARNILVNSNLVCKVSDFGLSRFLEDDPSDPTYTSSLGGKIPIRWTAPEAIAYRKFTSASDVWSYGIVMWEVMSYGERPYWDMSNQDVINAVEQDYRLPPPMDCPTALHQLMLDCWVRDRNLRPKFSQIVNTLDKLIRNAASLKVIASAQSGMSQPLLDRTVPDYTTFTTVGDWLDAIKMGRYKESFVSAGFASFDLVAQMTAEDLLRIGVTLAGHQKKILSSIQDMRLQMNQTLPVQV
# T31 sequence (Q15759 whole entry): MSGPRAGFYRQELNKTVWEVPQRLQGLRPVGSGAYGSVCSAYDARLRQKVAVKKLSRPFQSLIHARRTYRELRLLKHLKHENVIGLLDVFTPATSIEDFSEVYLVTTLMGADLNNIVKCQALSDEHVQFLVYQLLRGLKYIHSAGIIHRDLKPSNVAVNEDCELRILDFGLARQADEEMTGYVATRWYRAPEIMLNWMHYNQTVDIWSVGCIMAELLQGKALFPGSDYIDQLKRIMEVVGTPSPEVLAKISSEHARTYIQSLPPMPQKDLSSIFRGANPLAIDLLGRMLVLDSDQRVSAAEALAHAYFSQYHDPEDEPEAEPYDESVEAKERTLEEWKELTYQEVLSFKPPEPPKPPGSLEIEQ
# T15 sequence (Q9H422 whole entry): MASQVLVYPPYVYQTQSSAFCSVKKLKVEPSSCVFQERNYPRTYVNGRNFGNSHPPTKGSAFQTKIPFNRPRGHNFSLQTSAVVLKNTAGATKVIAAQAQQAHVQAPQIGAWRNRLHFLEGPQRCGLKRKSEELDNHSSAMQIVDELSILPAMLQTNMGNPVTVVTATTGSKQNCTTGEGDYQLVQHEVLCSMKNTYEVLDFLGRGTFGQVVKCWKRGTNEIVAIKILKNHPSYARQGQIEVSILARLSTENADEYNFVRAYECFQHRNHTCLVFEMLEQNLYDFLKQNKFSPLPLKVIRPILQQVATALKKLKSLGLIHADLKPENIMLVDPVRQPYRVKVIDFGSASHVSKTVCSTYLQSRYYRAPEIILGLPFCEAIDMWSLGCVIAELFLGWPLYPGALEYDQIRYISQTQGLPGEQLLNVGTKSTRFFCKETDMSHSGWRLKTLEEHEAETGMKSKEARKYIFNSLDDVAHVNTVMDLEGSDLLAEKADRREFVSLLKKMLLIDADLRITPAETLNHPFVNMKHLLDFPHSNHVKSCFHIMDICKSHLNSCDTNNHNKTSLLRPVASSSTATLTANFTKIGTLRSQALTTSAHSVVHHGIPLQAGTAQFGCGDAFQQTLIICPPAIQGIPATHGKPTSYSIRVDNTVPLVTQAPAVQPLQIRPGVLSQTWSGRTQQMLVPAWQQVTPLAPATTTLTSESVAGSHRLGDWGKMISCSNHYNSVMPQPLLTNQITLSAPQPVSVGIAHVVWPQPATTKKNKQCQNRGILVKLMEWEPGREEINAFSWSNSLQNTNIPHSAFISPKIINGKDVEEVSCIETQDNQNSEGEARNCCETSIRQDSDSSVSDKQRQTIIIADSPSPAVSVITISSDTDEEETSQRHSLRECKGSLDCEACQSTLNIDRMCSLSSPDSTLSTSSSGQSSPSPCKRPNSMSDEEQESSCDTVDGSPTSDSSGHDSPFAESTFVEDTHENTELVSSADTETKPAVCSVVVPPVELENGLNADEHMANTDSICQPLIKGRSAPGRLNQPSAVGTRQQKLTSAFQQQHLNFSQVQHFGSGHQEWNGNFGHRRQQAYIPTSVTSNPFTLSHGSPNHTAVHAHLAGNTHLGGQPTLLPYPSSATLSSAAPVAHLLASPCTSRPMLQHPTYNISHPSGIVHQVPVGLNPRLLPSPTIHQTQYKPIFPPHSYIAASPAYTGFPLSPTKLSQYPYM
# T22 sequence (P49137 whole entry): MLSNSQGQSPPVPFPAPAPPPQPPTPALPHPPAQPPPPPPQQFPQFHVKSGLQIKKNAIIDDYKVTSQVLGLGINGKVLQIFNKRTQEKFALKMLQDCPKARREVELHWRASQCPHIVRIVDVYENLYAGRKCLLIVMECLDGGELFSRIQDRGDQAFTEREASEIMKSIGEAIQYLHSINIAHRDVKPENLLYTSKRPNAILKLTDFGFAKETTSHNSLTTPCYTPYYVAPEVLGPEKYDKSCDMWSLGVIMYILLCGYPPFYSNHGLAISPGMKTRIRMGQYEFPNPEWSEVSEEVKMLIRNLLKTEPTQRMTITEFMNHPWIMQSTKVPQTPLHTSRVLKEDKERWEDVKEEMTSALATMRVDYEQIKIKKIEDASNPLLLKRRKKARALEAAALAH
structure (smiles),measurement,setting,value
"COCc1ccc2cccc(NC(=O)Nc3c(C)c(-c4cnn(C)c4)nn3-c3ccccc3)c2c1 [Example 16, 1-(1′,4-dimethyl-1-phenyl-1H,1′H-[3,4′-bipyrazol]-5-yl)-3-(7-(methoxymethyl)naphthalen-1-yl)urea]",Avg POC,CK1gamma3,120 POC
same,Avg POC,HIPK1,119 POC
same,Avg POC,MKK4_m,120.5 POC
same,Avg POC,Pim-2,141.5 POC
same,Avg POC,ULK2,102 POC
same,Avg POC,MKK6,94.5 POC
same,Avg POC,TSSK1,104.5 POC
same,Avg POC,PKCalpha,97 POC
same,Avg POC,SRPK2,105.5 POC
same,Avg POC,ZAP-70,118 POC
same,Avg POC,ROCK-II,105 POC
same,Avg POC,MKNK2,118.5 POC
same,Avg POC,Rsk4,126.5 POC
same,Avg POC,MARK2,114 POC
same,Avg POC,HIPK3,109.5 POC
same,Avg POC,PAK6,125 POC
same,Avg POC,IRR,102.5 POC
same,Avg POC,IRAK4,175.5 POC
same,Avg POC,Flt4,108 POC
same,Avg POC,Abl-P,147 POC
same,Avg POC,DYRK2,99 POC
same,Avg POC,MAPKAP-K2,128 POC
same,Avg POC,PKCbetaII,106.5 POC
same,Avg POC,MEK1,114 POC
same,Avg POC,ITK,131 POC
same,Avg POC,TBK1,121.5 POC
same,Avg POC,MRCKalpha,143.5 POC
same,Avg POC,PKCbetaI,97 POC
same,Avg POC,Flt1,115.5 POC
same,Avg POC,CAMK2g,98 POC
same,Avg POC,p38beta,117 POC
same,Avg POC,CDK7/cyclinH/MAT1,121.5 POC
same,Avg POC,CK2,114.5 POC
same,Avg POC,NLK,113.5 POC
same,Avg POC,PKAC-alpha,134 POC
same,Avg POC,Hck,135.5 POC
same,Avg POC,NEK3,122 POC
same,Avg POC,Fes,117.5 POC
same,Avg POC,Yes,107.5 POC
same,Avg POC,EphB3,102.5 POC
same,Avg POC,TLK2,106 POC
